# Marks after values point to notes of the source that are not given here.
# Experiments:
# [1] = system: pruritogen-induced scratching behavior; experiment: Antipruritic effect on pruritogen-induced scratching model (Experiment 1); type: in vivo, mouse; conditions: for Counts of scratching (Mean): 3% w/v in acetone 50 μL topical 1 h before, ICR female mouse
# Text: [Antipruritic Effect of Test Compound on Pruritogen-Induced Scratching Model]
# For the purpose of measuring scratching behavior (counts of scratching), a cylindrical magnet (diameter: 1 mm, length: 3 mm) was implanted into instep of right hindlimb of each mouse (ICR female mouse, 6 weeks old; Charles River Laboratories, Japan Inc.) under anesthesia at least three days before testing, and hair on her right dorsal neck was removed by a shaver under anesthesia the day before testing. After topical administration of a solution of test compound in acetone (3% w/v solution of 1-[2-(4S)-4-hydroxy-1,2,3,4-tetrahydroquinolin-1-yl]-4-pyridyl]-2,3-bis(dihydroxymethyl)-6,7-dimethoxynaphthalene sesquihydrate, as hereinafter referred to as Compound A, in acetone; 50 μL) or a vehicle (acetone; 50 μL) to the right dorsal neck of the above-treated mouse, these mice were placed into a testing apparatus (MicroAct, Neuroscience Inc.). After one hour of the administration of the above-mentioned solution, to the right dorsal neck of each mouse was intradermally administered a solution (50 μL) of a pruritogen in saline [histamine: 300 nmol/50 μL, U-46619 (chemical name: 9,11-dideoxy-9α,11α-methanoepoxyprosta-5Z,13E-dien-1-oic acid, Cayman Chemical Company): 10 nmol/50 μL, Compound 48/80 (Sigma): 3 μg/50 μL, serotonin (Sigma): 100 nmol/50 μL, or Substance P (Peptide Institute Inc.): 300 nmol/50 μL] or saline. Immediately after the administration, scratching behavior (counts of scratching) was measured for 30 minutes by MicroAct.
# PDE4 = PDE4 inhibitory activity measured by a conventional manner; type: biochemical
# Experimental: Ratio of inhibition rate on scratching behavior of each test compound to that of Compound A was calculated as antipruritic activity (%). For reference, PDE4 inhibitory activity of each compound (IC50) which was measured by a conventional manner is also shown in such Table.
# [2] = system: oxazolone-induced scratching behavior; experiment: Chronic oxazolone-induced dermatitis model: scratching behavior (Experiment 4); type: in vivo, mouse; conditions: for Counts of scratching (Mean ± standard error): Compound A 1%, Tacrolimus 0.1%, Dexamethasone 0.01% w/v in 0.25% oxazolone
# Experimental: (§1) [Antipruritic Effect of Test Compound in Chronic Oxazolone-Induced Dermatitis Model]
# (§2) A magnet for measurement was implanted into an instep part of right hindlimb of BALB/c male mouse (fed for one week from five-week old; Charles River Laboratories, Japan Inc.) under anesthesia, and on the same day, sensitization was carried out by topically administering 0.5% w/v solution (10 μL) of oxazolone in acetone respectively onto the both sides of right ear auricle of the animal (sensitization day). On each point of the 7th, 9th, 11th, 14th and 16th day reckoned from the day after the sensitization (1st day), each mouse was challenged by topical administration of a 10 μL solution of test compound [acetone (vehicle-treated group), 0.25% w/v solution of oxazolone in acetone (oxazolone-treated group), or a test compound solubilized in 0.25% w/v oxazolone solution in acetone (test compound-treated group)] onto the both sides of right ear auricle of the animal to produce inflammatory reactions. Immediately after the administration, scratching behavior (counts of scratching) was measured for two hours by MicroAct. Thickness of right ear auricle of each mouse was measured by a thickness gauge before and 24 hours after the topical administration of each test compound solution. The percentage described in the Table means “% w/v”.
# [3] = system: spontaneous locomotor activity; experiment: Effect on spontaneous locomotor activity (Experiment 3 (2)); type: in vivo, mouse; conditions: for Spontaneous locomotor activity (Mean): measured from 1 h after administration
# Experimental: (2) [Effect of Test Compound on Spontaneous Locomotor Activity] The same solution (50 μL) of test compound or a vehicle (50 μL) as described in the above-mentioned (1) was administered onto right dorsal neck of ICR female mice similarly pre-treated as described in Experiment 1. After one hour of the administration of the test compound solution or vehicle, these animals were placed into an apparatus for measuring spontaneous locomotor activity (SCANET, Melquest Ltd.), and their locomotor activity was measured for 30 minutes.
# [4] = system: histamine-induced scratching behavior; experiment: Antipruritic activity in histamine-induced scratching model, dose response (Experiment 3 (1)); type: in vivo, mouse
# Experimental: (1) [Antipruritic Activity of Test Compound in Histamine-Induced Scratching Model]
# After topical administration of a solution (50 μL) of test compound (0.3 to 3% w/v solution of Compound A in acetone, or 0.03 to 0.3% w/v solution of cipamfylline in acetone), or a vehicle (acetone; 50 μL) onto right dorsal neck of ICR female mice similarly pre-treated as described in Experiment 1, these animals were placed into a testing apparatus (MicroAct). After one hour of the administration of said test compound solution or vehicle, a solution (50 μL) of histamine in saline (300 nmol/50 μL) or saline (50 μL; control group) was intradermally administered to right dorsal neck of each mouse. Immediately after the administration, scratching behavior (counts of scratching) was measured for 30 minutes by the testing apparatus (MicroAct).
# [5] = system: oxazolone-induced inflammatory reactions of right ear auricle; experiment: Chronic oxazolone-induced dermatitis model: ear auricle thickness (Experiment 4); type: in vivo, mouse; conditions: Compound A 1%, Tacrolimus 0.1%, Dexamethasone 0.01% w/v in 0.25% oxazolone
# Experimental: as §1, §2
compound,measurement,setting,value
"COc1cc2cc(CO)c(CO)c(-c3ccnc(N4CC[C@H](O)c5ccccc54)c3)c2cc1OC [Compound A, 1-[2-(4S)-4-hydroxy-1,2,3,4-tetrahydroquinolin-1-yl]-4-pyridyl]-2,3-bis(dihydroxymethyl)-6,7-dimethoxynaphthalene sesquihydrate]","pruritogen-induced scratching behavior (counts of scratching), result in words","[1]; 3% w/v topical, all pruritogens of Tables 1 to 5",significantly inhibited
same,Counts of scratching (Mean),"[1]; pruritogen Compound 48/80 3 μg/50 μL intradermal, n = 15",521 beats/30 min.
same,Counts of scratching (Mean),"[1]; pruritogen Substance P 300 nmol/50 μL intradermal, n = 15",777 beats/30 min.
same,Counts of scratching (Mean),"[1]; pruritogen U-46619 10 nmol/50 μL intradermal, n = 15",1069 beats/30 min.
same,Counts of scratching (Mean),"[1]; pruritogen histamine 300 nmol/50 μL intradermal, n = 11",365 beats/30 min.
same,Counts of scratching (Mean),"[1]; pruritogen serotonin 100 nmol/50 μL intradermal, n = 10",841 beats/30 min.
same,IC50,PDE4,3 nM
same,Counts of scratching (Mean ± standard error),"[2]; 7th day, BALB/c male mouse",931 ± 135 (**) beats/2 hr.
same,Counts of scratching (Mean ± standard error),[2]; 9th day,664 ± 99 (**) beats/2 hr.
same,Counts of scratching (Mean ± standard error),[2]; 11th day,577 ± 77 (*) beats/2 hr.
same,Counts of scratching (Mean ± standard error),[2]; 14th day,863 ± 122 (**) beats/2 hr.
same,"inhibitory effect on the counts of scratching (antipruritic effect), result in words",[2]; 16th day,inhibitory effect on the counts of scratching
same,Counts of scratching (Mean ± standard error),[2]; 16th day,959 ± 166 (*) beats/2 hr.
same,Spontaneous locomotor activity (Mean),[3]; 0.3% w/v in acetone 50 μL topical,5814 counts/30 min.
same,Spontaneous locomotor activity (Mean),[3]; 1% w/v in acetone 50 μL topical,5779 counts/30 min.
same,Spontaneous locomotor activity (Mean),[3]; 3% w/v in acetone 50 μL topical,6260 counts/30 min.
same,"spontaneous locomotor activity lowering effect at a dose producing antipruritic effect, result in words","[3]; Compound A 3% w/v, cipamfylline 0.3% w/v",did not show spontaneous locomotor activity lowering effect
same,Counts of scratching (Mean),[4]; 0.3% w/v in acetone 50 μL topical 1 h before histamine 300 nmol/50 μL,634 beats/30 min.
same,Counts of scratching (Mean),[4]; 1% w/v in acetone 50 μL topical 1 h before histamine 300 nmol/50 μL,611 beats/30 min.
same,Counts of scratching (Mean),[4]; 3% w/v in acetone 50 μL topical 1 h before histamine 300 nmol/50 μL,314 beats/30 min.
same,Ear auricle thickness (Mean),[5]; 7th day,0.35 mm
same,Ear auricle thickness (Mean),[5]; 8th day,0.44** mm
same,Ear auricle thickness (Mean),[5]; 9th day,0.39** mm
same,Ear auricle thickness (Mean),[5]; 10th day,0.46** mm
same,Ear auricle thickness (Mean),[5]; 11th day,0.44** mm
same,Ear auricle thickness (Mean),[5]; 12th day,0.48** mm
same,Ear auricle thickness (Mean),[5]; 14th day,0.44** mm
same,Ear auricle thickness (Mean),[5]; 15th day,0.54** mm
same,Ear auricle thickness (Mean),[5]; 16th day,0.47** mm
same,Ear auricle thickness (Mean),[5]; 17th day,0.50** mm
same,Ear auricle thickness (Mean),"[5]; sensitization day, BALB/c male mouse",0.27 mm

# — patent publication US20140121240A1, “NOVEL PHARMACEUTICAL COMPOSITION” (MARUHO CO., LTD., priority 2011, published 2014)
